Measurements as given in ChEMBL document CHEMBL1201862, “PubChem BioAssay data set” (2004).
Active and inactive are the calls of the source.

Columns and labels:
[1] = NIH-3T3 fibroblast cytotoxicity, dose response, cytotoxicity control, cell-based, fluorescence, Alamar Blue, secondary assay (AID 2327); assay type: functional;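 also: NIH-3T3 mouse fibroblasts cultured with fluconazole at 8 µg/mL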
[2] = C. albicans growth with fluconazole, confirmation, fluorescence, retest (AID 2467); assay type: functional, cell-based
[3] = microbe, parasite or virus in culture; assay type: functional; details: Mycobacterium tuberculosis
[4] = target: T1, Serine/threonine-protein phosphatase (Candida dubliniensis (strain CD36 / CBS 7987 / NCPF 3949 / NRRLY-17841) (Yeast), UniProt B9W6M3); assay: calcineurin pathway inhibitors in yeast reporter, dose response, S. cerevisiae, CDRE-lacZ, luminescence, secondary (AID 2388); assay type: functional, cell-based;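 also: yeast reporter cells carrying a calcineurin-responsive lacZ construct stimulated with calcium chloride; luminescent beta-galactosidase reporter signal in whole cells rather than isolated phosphatase activity; potency for inhibition where a drop in reporter signal means calcineurin blockade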
T1 sequence (B9W6M3 whole entry): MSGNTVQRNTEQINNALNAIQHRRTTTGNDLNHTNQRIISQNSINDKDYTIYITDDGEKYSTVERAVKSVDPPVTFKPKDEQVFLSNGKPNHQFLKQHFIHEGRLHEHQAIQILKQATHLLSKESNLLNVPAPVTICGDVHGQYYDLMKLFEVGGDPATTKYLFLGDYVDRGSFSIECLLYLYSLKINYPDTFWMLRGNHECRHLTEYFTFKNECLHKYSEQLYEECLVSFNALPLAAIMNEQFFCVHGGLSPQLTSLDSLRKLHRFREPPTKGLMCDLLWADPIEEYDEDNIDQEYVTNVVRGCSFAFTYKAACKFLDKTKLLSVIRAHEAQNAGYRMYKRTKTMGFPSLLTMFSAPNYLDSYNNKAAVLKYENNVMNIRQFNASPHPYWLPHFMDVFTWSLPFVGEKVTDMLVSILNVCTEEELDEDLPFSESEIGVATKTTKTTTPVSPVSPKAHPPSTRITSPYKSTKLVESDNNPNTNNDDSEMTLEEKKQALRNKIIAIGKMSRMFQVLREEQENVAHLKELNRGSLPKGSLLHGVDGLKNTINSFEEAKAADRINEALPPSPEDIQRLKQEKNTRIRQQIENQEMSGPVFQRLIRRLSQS

[5] = THP-1 cell cytotoxicity, dose response, cytotoxicity control for non-replicating M. tuberculosis project (AID 489025); assay type: functional
[6] = HepG2 cell cytotoxicity, dose response, cytotoxicity control for non-replicating M. tuberculosis project (AID 489018); assay type: functional; details: Mycobacterium tuberculosis
[7] = Vero E6 cell cytotoxicity, dose response, cytotoxicity control for non-replicating M. tuberculosis project, secondary assay (AID 492998); assay type: functional, VeroE6; details: Vero C1008
cells [8] = assay type: functional
[9] = target: ATP-dependent molecular chaperone HSP82 (Candida albicans (strain WO-1) (Yeast), UniProt C4YTQ8); assay: loss of DOC-induced GRE-beta-galactosidase reporter signal, dose response, Hsp90 inhibitor project, S. cerevisiae, luminescence (AID 2400); assay type: functional, cell-based;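 also: beta-galactosidase luminescence from glucocorticoid response element reporter as proxy for Hsp90 function; inhibitor potency where signal loss means Hsp90 inhibition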
[10] = target: T2, Short transient receptor potential channel 4 (Mus musculus, UniProt Q9QUQ5); assay: mouse TRPC4 channel inhibitors, dose response, cell-based, HEK293 TRPC4/mu-opioid, Fluo-4 calcium (AID 434942); assay type: functional;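 also: potency of inhibitors blocking the TRPC4 calcium response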
T2 sequence (Q9QUQ5 whole entry): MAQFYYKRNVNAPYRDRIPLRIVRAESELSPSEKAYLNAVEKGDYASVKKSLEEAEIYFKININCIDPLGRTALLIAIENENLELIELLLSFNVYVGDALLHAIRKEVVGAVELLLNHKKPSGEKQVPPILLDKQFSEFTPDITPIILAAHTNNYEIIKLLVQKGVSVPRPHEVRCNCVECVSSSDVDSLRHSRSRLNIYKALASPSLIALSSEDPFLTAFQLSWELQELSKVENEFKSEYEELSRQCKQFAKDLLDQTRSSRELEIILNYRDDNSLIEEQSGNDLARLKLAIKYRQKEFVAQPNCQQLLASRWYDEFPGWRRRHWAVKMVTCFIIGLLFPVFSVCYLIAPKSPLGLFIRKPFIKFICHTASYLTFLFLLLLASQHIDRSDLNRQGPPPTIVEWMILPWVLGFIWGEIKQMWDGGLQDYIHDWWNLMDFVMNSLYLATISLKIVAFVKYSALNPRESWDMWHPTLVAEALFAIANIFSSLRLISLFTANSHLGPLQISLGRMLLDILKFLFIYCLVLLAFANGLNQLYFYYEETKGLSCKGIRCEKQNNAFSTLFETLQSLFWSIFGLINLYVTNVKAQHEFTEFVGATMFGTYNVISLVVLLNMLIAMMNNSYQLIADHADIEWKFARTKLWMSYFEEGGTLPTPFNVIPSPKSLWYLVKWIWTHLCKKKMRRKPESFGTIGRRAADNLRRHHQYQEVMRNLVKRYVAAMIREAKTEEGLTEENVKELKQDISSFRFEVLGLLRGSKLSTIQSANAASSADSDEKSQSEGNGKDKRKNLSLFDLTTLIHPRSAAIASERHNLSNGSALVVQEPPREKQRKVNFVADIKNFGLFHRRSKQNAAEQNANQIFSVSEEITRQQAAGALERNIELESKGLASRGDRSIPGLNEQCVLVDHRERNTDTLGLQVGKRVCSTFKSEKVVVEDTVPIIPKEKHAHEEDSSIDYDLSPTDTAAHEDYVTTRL

[11] = inhibitors of firefly luciferase expression or activity, dose response, H4 neuroglioma cells, luminescence (AID 1990); assay type: functional, cell-based
[12] = tested on: Streptococcus sp. 'group A'; assay: growth inhibition of control SK(-) GAS strain, dose response, counter-screen for streptokinase expression inhibitor project, luminescence, kanamycin, BacTiterGlo, confirmation (AID 1900); assay type: functional, organism-based
cells [13] = assay type: functional, cell-based
[14] = Luminescence Cell-Based Dose Response HTS to Identify Inhibitors of 5'UTR Stem-Loop Driven Prion Protein mRNA Translation in H4 Neuroglioblastoma Cells. [Related pubchem assays: 1827 (Project Summary), 1813 (Primary HTS)]; assay type: functional
[15] = inhibitors of SNCA 5'UTR-driven reporter translation, confirmation, H4 neuroglioma cells, luminescence (AID 1988); assay type: functional, cell-based
Streptokinase A = target: T3, Streptokinase A (Streptococcus pyogenes serotype M1, UniProt P10520); assay: S. pyogenes streptokinase expression inhibitors, potency, dose response, plasminogen activation absorbance, OD405 (AID 1914); assay type: functional, Streptococcus pyogenes M1 GAS;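 also: secreted streptokinase activity via plasminogen activation per viability signal from cell pellet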
T3 sequence (P10520 whole entry): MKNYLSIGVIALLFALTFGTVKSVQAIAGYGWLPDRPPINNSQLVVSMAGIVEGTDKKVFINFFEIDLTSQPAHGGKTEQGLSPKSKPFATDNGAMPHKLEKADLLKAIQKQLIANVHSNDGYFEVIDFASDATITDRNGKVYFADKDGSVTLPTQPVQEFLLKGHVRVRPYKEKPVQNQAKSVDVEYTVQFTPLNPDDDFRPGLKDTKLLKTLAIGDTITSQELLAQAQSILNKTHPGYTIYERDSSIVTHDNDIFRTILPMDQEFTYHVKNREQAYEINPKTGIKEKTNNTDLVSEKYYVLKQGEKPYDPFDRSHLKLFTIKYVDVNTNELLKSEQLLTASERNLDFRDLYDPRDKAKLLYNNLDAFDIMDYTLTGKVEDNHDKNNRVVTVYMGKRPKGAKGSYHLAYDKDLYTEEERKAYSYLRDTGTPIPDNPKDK

[16] = inhibitors of intracellular T. cruzi replication, confirmation, NIH3T3 host cells, beta-gal luminescence (AID 2044); assay type: functional, cell-based;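 also: intracellular parasites grown in NIH/3T3 mouse fibroblasts as host cells; luminescent beta-galactosidase reporter signal from transgenic T. cruzi replicating inside host cells; inhibitors lower the luminescence signal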
cells [17] = assay type: functional, cell-based; remark: listed apart in the source
[18] = cytotoxicity toward NIH3T3 fibroblasts, dose response, counter-screen, cell-based, ATP luminescence, mouse fibroblasts (AID 2010); assay type: functional;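 also: cells exposed to compound for about 90 hours before reading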
Streptococcus = assay: Group A Streptococcus viability loss, dose response, counter-screen for streptokinase expression inhibitor project, luminescence, BacTiterGlo (AID 1915); assay type: functional, organism-based;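 also: potency for reduction of bacterial viability or growth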
[19] = target: Heat shock protein HSP 90-alpha (Homo sapiens, UniProt P07900); assay type: functional, organism-based
INS1 = assay: beta cell apoptosis inhibitors, cytokine rescue, dose response, luminescence, retest (AID 449756); assay type: functional, cell-based; details: Rattus norvegicus;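 also: cell death triggered by IL-1 beta plus TNF-alpha plus IFN-gamma mixture; protective hits raise ATP signal compared with cytokine alone wells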
[20] = Shn3 3'UTR reporter inhibitors, dose response, cell-based, Clone20 osteoblasts, firefly luciferase, cherry-picked (AID 624132); assay type: functional;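 also: firefly luciferase luminescence from reporter carrying the Shn3 3'UTR in osteoblasts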
[21] = HepG2 cell cytotoxicity, dose response, cytotoxicity control for Shn3 inhibitor project, CellTiter-Glo, cherry-picked (AID 624134); assay type: functional, cell-based
[22] = control 3'UTR Renilla luciferase suppression, dose response, counter-screen for Shn3 inhibitor project, cell-based, Clone20-Shn3RL, cherry-picked (AID 624133); assay type: functional
[23] = target: Serine/threonine-protein kinase pim-1 (Homo sapiens, UniProt P11309); assay type: functional
[24] = target: Cell division cycle 7-related protein kinase (Homo sapiens, UniProt O00311); assay type: functional;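 also: value obtained from a kinome-wide kinase panel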
[25] = target: Homeodomain-interacting protein kinase 2 (Homo sapiens, UniProt Q9H2X6); assay type: functional;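 also: measured within a kinome-wide kinase profiling panel, HIPK2 being one panel member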
[26] = target: T4, Interleukin-1 receptor-associated kinase 4 (Homo sapiens, UniProt Q9NWZ3); assay type: functional
T4 sequence (Q9NWZ3 whole entry): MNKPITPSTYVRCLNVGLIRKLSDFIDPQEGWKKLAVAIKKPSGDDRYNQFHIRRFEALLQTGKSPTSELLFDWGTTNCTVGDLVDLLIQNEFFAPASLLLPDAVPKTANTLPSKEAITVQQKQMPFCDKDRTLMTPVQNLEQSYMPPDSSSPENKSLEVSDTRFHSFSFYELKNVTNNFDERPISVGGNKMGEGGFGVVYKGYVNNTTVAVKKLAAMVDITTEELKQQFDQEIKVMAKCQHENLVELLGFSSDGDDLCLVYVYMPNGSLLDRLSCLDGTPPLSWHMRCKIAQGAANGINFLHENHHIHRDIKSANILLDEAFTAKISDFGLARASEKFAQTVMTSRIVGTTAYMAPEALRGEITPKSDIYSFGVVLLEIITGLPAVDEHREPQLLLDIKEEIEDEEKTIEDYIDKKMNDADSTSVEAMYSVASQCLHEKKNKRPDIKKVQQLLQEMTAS

[27] = target: Glycogen synthase kinase-3 beta (Homo sapiens, UniProt P49841); assay type: functional;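 also: value comes from a broad kinome profiling panel, with GSK3B as the panel member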
[28] = target: cAMP-dependent protein kinase catalytic subunit alpha (Homo sapiens, UniProt P17612); assay type: functional
[29] = target: Dual specificity protein kinase CLK4 (Homo sapiens, UniProt Q9HAZ1); assay type: functional
[30] = target: Mitogen-activated protein kinase kinase kinase kinase 4 (Homo sapiens, UniProt O95819); assay type: functional
Mitogen-activated protein kinase kinase kinase kinase 4, sequence (O95819 whole entry): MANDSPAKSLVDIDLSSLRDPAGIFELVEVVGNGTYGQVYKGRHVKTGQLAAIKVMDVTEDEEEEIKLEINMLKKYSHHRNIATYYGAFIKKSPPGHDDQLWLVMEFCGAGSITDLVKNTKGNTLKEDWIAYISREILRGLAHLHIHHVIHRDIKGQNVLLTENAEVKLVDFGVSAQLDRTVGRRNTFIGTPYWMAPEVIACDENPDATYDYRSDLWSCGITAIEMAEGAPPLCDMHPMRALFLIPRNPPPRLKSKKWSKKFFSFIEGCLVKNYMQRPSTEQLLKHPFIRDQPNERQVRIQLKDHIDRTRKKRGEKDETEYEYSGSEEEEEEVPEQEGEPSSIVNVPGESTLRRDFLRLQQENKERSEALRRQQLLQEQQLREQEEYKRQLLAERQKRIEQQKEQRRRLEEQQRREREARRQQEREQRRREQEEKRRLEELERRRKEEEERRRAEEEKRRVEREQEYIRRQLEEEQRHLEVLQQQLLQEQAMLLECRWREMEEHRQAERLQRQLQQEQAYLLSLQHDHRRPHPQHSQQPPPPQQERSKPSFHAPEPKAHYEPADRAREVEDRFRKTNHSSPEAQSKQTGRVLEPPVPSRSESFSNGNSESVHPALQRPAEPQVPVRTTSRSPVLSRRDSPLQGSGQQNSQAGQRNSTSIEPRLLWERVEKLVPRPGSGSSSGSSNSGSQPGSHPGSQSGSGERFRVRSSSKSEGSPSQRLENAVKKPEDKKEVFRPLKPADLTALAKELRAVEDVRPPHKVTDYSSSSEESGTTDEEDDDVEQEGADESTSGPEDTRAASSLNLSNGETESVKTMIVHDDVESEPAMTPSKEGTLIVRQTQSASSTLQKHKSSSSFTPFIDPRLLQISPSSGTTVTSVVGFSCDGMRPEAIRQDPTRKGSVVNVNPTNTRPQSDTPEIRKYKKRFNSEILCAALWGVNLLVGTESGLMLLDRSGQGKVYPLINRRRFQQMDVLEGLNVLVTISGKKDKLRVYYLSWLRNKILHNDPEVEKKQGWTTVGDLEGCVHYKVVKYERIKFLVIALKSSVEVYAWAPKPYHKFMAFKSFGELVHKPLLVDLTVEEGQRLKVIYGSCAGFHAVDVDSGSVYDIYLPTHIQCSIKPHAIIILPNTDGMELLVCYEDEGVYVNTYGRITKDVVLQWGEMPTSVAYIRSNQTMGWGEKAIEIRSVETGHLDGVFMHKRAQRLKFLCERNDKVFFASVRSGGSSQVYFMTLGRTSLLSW

ATP-dependent molecular chaperone HSP82, sequence (C4YTQ8 whole entry): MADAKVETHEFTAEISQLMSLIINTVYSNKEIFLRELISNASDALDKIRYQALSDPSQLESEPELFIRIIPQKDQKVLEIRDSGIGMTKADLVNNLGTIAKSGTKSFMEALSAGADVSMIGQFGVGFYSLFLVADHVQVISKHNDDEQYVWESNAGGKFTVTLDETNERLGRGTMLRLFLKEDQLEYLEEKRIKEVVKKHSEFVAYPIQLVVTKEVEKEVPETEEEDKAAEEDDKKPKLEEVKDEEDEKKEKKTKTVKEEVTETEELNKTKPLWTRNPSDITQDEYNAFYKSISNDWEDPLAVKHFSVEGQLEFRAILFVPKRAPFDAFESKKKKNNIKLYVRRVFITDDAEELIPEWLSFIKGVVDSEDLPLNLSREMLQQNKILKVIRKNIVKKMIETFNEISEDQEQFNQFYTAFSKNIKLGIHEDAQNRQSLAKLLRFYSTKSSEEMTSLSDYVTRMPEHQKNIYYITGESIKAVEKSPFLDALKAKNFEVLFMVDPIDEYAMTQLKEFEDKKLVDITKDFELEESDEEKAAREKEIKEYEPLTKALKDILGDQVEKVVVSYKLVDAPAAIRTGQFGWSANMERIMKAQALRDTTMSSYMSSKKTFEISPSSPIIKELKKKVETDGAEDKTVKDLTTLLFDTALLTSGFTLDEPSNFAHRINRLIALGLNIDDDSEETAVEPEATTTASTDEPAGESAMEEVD
Cell division cycle 7-related protein kinase, sequence (O00311 whole entry): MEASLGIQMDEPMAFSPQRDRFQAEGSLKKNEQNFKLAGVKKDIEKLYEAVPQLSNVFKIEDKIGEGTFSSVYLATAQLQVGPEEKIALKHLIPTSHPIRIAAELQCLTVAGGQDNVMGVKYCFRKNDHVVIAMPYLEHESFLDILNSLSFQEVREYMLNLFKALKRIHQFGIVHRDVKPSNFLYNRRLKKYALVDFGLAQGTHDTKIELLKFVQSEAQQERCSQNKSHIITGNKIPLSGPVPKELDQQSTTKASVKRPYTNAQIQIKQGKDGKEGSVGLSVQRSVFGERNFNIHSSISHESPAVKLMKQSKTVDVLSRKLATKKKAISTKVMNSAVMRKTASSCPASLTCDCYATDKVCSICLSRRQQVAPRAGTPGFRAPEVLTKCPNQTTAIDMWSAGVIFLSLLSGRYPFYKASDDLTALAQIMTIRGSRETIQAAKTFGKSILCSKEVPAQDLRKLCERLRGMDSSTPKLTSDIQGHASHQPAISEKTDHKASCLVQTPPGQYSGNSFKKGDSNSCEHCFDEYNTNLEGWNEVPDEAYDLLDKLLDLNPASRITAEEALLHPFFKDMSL
Dual specificity protein kinase CLK4, sequence (Q9HAZ1 whole entry): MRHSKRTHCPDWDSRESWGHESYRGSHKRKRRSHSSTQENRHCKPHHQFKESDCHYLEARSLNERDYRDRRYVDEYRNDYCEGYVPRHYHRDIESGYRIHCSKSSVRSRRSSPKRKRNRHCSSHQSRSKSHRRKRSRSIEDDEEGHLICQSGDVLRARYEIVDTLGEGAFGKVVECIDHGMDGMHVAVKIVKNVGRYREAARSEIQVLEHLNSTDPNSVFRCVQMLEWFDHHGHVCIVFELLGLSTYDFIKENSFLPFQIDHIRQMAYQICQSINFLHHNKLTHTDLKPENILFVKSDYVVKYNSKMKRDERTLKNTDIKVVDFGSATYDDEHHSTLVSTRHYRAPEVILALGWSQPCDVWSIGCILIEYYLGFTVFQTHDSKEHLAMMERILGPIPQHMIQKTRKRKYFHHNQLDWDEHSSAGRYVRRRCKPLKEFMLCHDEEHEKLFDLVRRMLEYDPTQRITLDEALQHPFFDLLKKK
Serine/threonine-protein kinase pim-1, sequence (P11309 whole entry): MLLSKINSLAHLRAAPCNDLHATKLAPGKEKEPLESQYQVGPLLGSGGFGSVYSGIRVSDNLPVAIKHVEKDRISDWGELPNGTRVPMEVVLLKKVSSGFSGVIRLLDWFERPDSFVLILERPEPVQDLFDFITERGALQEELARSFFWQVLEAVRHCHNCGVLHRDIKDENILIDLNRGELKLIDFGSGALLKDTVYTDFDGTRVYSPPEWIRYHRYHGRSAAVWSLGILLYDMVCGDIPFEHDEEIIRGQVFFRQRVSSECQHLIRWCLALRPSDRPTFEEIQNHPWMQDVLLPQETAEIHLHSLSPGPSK
Glycogen synthase kinase-3 beta, sequence (P49841 whole entry): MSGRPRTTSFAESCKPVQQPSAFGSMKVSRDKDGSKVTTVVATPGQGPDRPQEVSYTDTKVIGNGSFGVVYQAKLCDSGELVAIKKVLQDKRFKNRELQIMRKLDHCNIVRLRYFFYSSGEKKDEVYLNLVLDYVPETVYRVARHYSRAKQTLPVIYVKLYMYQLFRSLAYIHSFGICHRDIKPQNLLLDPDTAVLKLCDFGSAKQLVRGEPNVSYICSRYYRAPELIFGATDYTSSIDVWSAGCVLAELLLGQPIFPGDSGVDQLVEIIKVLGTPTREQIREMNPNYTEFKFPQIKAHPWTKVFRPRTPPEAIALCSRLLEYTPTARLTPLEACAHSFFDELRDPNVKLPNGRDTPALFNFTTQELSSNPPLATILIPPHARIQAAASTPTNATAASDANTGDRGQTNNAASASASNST
Homeodomain-interacting protein kinase 2, sequence (Q9H2X6 whole entry): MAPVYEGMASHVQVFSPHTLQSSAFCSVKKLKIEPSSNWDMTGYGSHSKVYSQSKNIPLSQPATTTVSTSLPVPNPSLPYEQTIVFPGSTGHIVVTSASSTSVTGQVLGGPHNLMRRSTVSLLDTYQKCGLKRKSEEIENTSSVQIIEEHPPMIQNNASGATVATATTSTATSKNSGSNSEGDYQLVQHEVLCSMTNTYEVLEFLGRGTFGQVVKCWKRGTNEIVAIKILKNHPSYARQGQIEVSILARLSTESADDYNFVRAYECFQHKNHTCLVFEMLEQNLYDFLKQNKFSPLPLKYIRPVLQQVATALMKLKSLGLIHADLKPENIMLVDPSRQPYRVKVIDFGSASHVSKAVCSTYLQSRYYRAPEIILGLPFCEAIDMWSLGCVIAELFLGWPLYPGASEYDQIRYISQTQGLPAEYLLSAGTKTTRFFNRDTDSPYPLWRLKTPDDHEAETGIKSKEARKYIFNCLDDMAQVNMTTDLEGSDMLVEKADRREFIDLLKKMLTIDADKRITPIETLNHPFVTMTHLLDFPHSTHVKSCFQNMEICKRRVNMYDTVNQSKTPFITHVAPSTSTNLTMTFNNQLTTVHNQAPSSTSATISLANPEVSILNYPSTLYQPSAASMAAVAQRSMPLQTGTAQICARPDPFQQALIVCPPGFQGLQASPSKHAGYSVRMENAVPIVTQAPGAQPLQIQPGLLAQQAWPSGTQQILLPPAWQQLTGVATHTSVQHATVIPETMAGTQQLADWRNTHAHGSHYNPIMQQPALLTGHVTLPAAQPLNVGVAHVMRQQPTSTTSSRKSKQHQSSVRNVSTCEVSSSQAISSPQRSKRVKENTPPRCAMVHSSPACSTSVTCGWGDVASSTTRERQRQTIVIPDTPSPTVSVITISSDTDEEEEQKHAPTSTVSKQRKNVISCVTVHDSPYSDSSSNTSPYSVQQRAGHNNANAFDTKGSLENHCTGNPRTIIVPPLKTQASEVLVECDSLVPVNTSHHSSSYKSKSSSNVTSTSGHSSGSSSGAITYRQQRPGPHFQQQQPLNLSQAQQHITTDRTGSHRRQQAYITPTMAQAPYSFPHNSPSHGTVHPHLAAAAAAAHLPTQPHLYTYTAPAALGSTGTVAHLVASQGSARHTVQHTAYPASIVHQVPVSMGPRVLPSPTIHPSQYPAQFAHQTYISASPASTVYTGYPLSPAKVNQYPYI

O=c1c2ccc(Cl)cc2nc(-c2ccc([N+](=O)[O-])cc2)n1O
EC50 [1]: 99400 nM (active) | EC50 [2]: 430 nM (active) | CC50 [3]: 21400 nM (active) | EC50 [4]: > 180000 nM (inactive) | CC50 [5]: 11800 nM (active) | CC50 [6]: 16800 nM (active) | CC50 [7]: 12100 nM (active) | IC50 (cells [8]): 8170 nM (active) | EC50 [9]: 44600 nM (active)

CCOc1ccc(-c2ccc(NS(=O)(=O)c3ccc([N+](=O)[O-])cc3)cc2)nn1
EC50 [1]: 50700 nM (active) | EC50 [2]: 2360 nM (active) | EC50 [4]: > 180000 nM (inactive) | EC50 [9]: > 150000 nM (inactive)

CCCCCCCNC(=O)COc1ccc2c(c1)C(=O)CC(C)(C)O2
EC50 [1]: > 160000 nM (inactive) | EC50 [2]: 2280 nM (active) | EC50 [4]: > 180000 nM (inactive) | EC50 [10]: 944 nM (active) | EC50 [9]: > 160000 nM (inactive)

Oc1c(CN2CCN(c3ccc(F)cc3)CC2)cc(Cl)c2cccnc12
EC50 [1]: 26100 nM (active) | EC50 [11]: 200 nM (active) | EC50 [12]: 1560 nM (active) | EC50 (cells [13]): 69400 nM (active) | EC50 [14]: 157 nM (active) | EC50 [15]: 192 nM (active) | EC50 (Streptokinase A): > 150000 nM (not active) | EC50 [2]: 693 nM (active) | EC50 [16]: 465 nM (active) | EC50 (cells [17]): > 350000 nM (not active) | EC50 [4]: > 180000 nM (inactive) | EC50 [18]: 8200 nM (active) | EC50 (Streptococcus): 10800 nM (active) | AC50 [19]: 7920 nM (active) | AC50 (INS1): 1270 nM (active) | EC50 [9]: > 160000 nM (inactive) | AC50 [20]: 1320 nM (active) | AC50 [21]: > 70000 nM (inactive) | AC50 [22]: 534 nM (active)

Cc1cc(Br)ccc1OCC(=O)NNC(=O)C(=O)Nc1ccccc1
EC50 [1]: > 150000 nM (inactive) | EC50 [2]: 526 nM (active) | EC50 [4]: > 180000 nM (inactive) | IC50 (cells [8]): 12200 nM (active) | EC50 [9]: > 150000 nM (inactive)

C=CCNc1cc(-c2c[nH]c3ncccc23)cc(Cl)n1
Ki [23]: 794 nM (active) | Ki [24]: 0.794 nM (active) | Ki [25]: 50.1 nM (active) | Ki [26]: 631 nM (active) | Ki [27]: 100 nM (active) | Ki [28]: 398 nM (active) | Ki [29]: 3.98 nM (active)

CCCCOc1cc(-c2ccncc2)cc2[nH]nc(N)c12
Ki [23]: 1580 nM (active) | Ki [24]: 15.8 nM (active) | Ki [25]: 794 nM (active) | Ki [26]: 631 nM (active) | Ki [27]: 631 nM (active) | Ki [28]: 1260 nM (active) | Ki [29]: 10 nM (active) | Ki [30]: 251 nM (active)
